System: primary mouse hepatocytes
Assay: Gene expression (Affymetrix Mouse Genome 430 2.0) in primary mouse hepatocytes, true vs false GTX, 24 h and 48 h

For Mitomycin C [MitC], the “Gene expression NM_011075 average” value was 3.096, the “Gene expression NM_011176 average” value was 1.856 and the “Gene expression NM_011316 average” value was 2.256. For the same substance, the “Gene expression NM_012006 average” value was 3.166, the “Gene expression NM_013642 average” value was −0.7845 and the “Gene expression NM_013738 average” value was 2.749. The “Gene expression NM_013929 average” value was 2.481, the “Gene expression NM_018881 average” value was 2.279 and the “Gene expression NM_019738 average” value was −2.772. The “Gene expression NM_030697 average” value was 3.958, the “Gene expression NM_053122 average” value was −4.049 and the “Gene expression NM_134147 average” value was −2.8471. For the same substance, the “Gene expression NM_134188 average” value was 0.4786, the “Gene expression X62701 average” value was −1.3159 and the “Gene expression data AF000969 (Cadps2)” value was −2.406. The “Gene expression data AF022072 (Grb10)” value was −3.6802, the “Gene expression data AF065917 (Lif)” value was 1.033 and the “Gene expression data AF297615 (Ggta1)” value was 2.358. For the same substance, the “Gene expression data AI594683 (Dmn)” value was 3.671, the “Gene expression data AI596632 (Ptprg /// LOC632664)” value was −4.795 and the “Gene expression data AI987929 (Ndrg1)” value was −3.324. For the same substance, the “Gene expression data AK004419 (Fbxl17)” value was −4.0931, the “Gene expression data AK005731 (1700007K13Rik)” value was 5.7645 and the “Gene expression data AK007766 (1810044A24Rik)” value was −2.227. The “Gene expression data AK007854 (1810053B23Rik)” value was 2.898, the “Gene expression data AK009736 (Gpr137b /// LOC664862 /// LOC673335)” value was −1.056 and the “Gene expression data AK010447 (Smyd3)” value was −1.439. The “Gene expression data AK014608 (4632434l11Rik)” value was 2.3711, the “Gene expression data AK019979 (2610528E23Rik)” value was −3.317 and the “Gene expression data AV095209 (Mthfd1l)” value was −2.454. The “Gene expression data AV141095 (1110033M05Rik)” value was −2.287, the “Gene expression data AV173571 (1700106N22Rik)” value was −2.287 and the “Gene expression data AV219418 (Ldhb)” value was 2.873. The “Gene expression data AV223474 (Zdhhc14)” value was −2.283, the “Gene expression data AV298304 (Homez)” value was 1.9706 and the “Gene expression data AV327248 (Zfp365 /// LOC674611)” value was 4.258. The “Gene expression data AV377066 (9130221J18Rik)” value was 2.462, the “Gene expression data AW240761 (Tbc1d5)” value was −2.643 and the “Gene expression data AW543460 (Pard3)” value was −3.164. For the same substance, the “Gene expression data AW543723” value was 2.3145, the “Gene expression data AW986246 (Maoa)” value was −0.2119 and the “Gene expression data BB027848 (4732466D17Rik)” value was 2.18. For the same substance, the “Gene expression data BB043558 (9230114K14Rik)” value was 2.308, the “Gene expression data BB275142 (AW456874)” value was 1.944 and the “Gene expression data BB308836 (Ppm1l)” value was −1.64. For the same substance, the “Gene expression data BB318221 (Zdhhc14)” value was −2.706, the “Gene expression data BB463610 (4632434l11Rik)” value was 2.535 and the “Gene expression data BB526605 (Mipol1)” value was −2.035. The “Gene expression data BB770528 (Rai2)” value was 2.603, the “Gene expression data BB821363 (Scfd2)” value was −2.485 and the “Gene expression data BC004827 (Psat1)” value was −2.4733. For the same substance, the “Gene expression data BC008626 (Icam1)” value was 2.3005, the “Gene expression data BC010462 (BC010462)” value was 1.163 and the “Gene expression data BC012247 (Dcxr)” value was 2.094. For the same substance, the “Gene expression data BC012260 (Psmf1)” value was 2.237, the “Gene expression data BC015270 (Hist2h3c2)” value was 0.6339 and the “Gene expression data BC016073 (Cdkal1)” value was −1.963. The “Gene expression data BC016265 (Ube2e2)” value was −2.202, the “Gene expression data BC019882 (Acaa1b)” value was 3.446 and the “Gene expression data BC025501 (Aaas)” value was 2.023. The “Gene expression data BC025837 (Sbk1)” value was 1.652, the “Gene expression data BC025915 (Cova1)” value was −1.619 and the “Gene expression data BC026422 (Tgm1)” value was 2.651. The “Gene expression data BF719766 (Thyn1)” value was 2.045, the “Gene expression data BG065754 (Ccng1)” value was 1.179 and the “Gene expression data BG066903 (Kif16b)” value was −1.047. For the same substance, the “Gene expression data BG069873 (Gnb1l)” value was 2.175, the “Gene expression data BG070887 (Gtdc1)” value was −2.356 and the “Gene expression data BG076151 (Ppm1d)” value was 2.238. For the same substance, the “Gene expression data BG261907 (Large)” value was −3.876, the “Gene expression data BI651416 (Cdc42bpg)” value was 2.482 and the “Gene expression data BI660702 (Ell3)” value was 3.742. The “Gene expression data BM198879 (Ercc5)” value was 2.012, the “Gene expression data BM230508 (A030007D23Rik)” value was 2.556 and the “Gene expression data NM_007987 (Fas)” value was 2.6645. The “Gene expression data NM_008522 (Ltf)” value was 3.9908, the “Gene expression data NM_008576 (Abcc1)” value was −1.312 and the “Gene expression data NM_011176 (St14)” value was 2.078. The “Gene expression data NM_011316 (Saa4)” value was 2.611, the “Gene expression data NM_012006 (Acot1)” value was 3.959 and the “Gene expression data NM_013866 (Zfp385)” value was 2.3. For the same substance, the “Gene expression data NM_018770 (Igsf4a)” value was −2.054, the “Gene expression data NM_021451 (Pmaip1)” value was 2.681 and the “Gene expression data NM_025770 (Atg10)” value was −1.329. The “Gene expression data NM_028803 (Gbe1)” value was −1.8898, the “Gene expression data NM_030697 (Ankrd47)” value was 3.874 and the “Gene expression data NM_053168 (Trim11)” value was 1.4821. For the same substance, the “Gene expression data NM_134188 (Acot2)” value was −0.06593 and the “Gene expression data Y15910 (Diap2)” value was −2.813.

— US20120122727A1, “IN VITRO METHOD FOR PREDICTING WHETHER A COMPOUND IS GENOTOXIC IN VIVO” (priority 2009, published 2012)
